Source: patent publication EP0731697B1, “SSI TYRPHOSTINS AND PHARMACEUTICAL COMPOSITIONS” (priority 1993, dated 1995)
Like-named read-outs stand apart in the source and are kept apart here.

How the values were obtained:
[1] = molecular target: Her-2/neu receptor (Homo sapiens, UniProt P04626); settings: even at concentrations above 100 uM; cited from earlier work
[2] = test system: TNF-α; assay: LPS-induced production of TNF-α by activated murine peritoneal macrophages in vitro
Procedure: The amount of TNF-α was quantitated by assessing the extent of killing of the TNF-α sensitive cell line (A9) essentially as described by Ruff and Gilford, G. E. J. Immunol. […] Briefly, mouse A9 fibroblasts were plated in 96-well flat-bottom micro-titer plates at 30,000 cells /0.1 ml to establish a dense monolayer. After incubation for 24 hr at 37 C in a humidified 5% CO2 atmosphere, cycloheximide was added to a final concentration of 50 ug/ml and 100 ul of serially diluted test samples were added to the wells. After incubation for additional 18 hr the supernatants were carefully aspirated, the monolayer were washed twice with PBS and 200 ul of neutral red solution (0.02%) was added. After incubation for 2 hr, cells were washed and the dye that had been absorbed by the live cells was extracted using 200 ul of 50% ethanol. The concentration of the dye was determined by an ELISA autoreader using a 550 nm filter. Murine TNF-α ELISA kit from ENDOGEN Inc., was used for quancitation of murine TNF-α.
Mice were injected i.p. with 1 ml sodium periodate (5mM). Three to 4 days later, macrophages were washed from the peritoneal cavity with PBS. After centrifugation at 170g for 10 min at 40° C, the cell pellet was resuspended in RPMI 1640 containing 10% heat-inactivated new born calf serum. Adherent macrophage monolayers were obtained by plating the cells in 96-well plastic trays at 4x10^5 cells/well for 2 hr at 37°C in 5% CO2/air. Nonadherent cells were removed by suction and complete medium was added.

[3] = molecular target: EGF receptor (Homo sapiens, UniProt P00533); settings: even at concentrations above 100 uM; cited from earlier work
[4] = test system: murine peritoneal macrophages; assay: NO2- production by periodate-activated murine peritoneal macrophages; assay type: cell-based
Procedure: Nitrite (NO2-) levels were determined in supernatants at the time indicated, as described herein. (Table 5) Values are expressed as means of triplicate cultures. […] Two additional experiments yielded similar results.
NO2- the product of NO oxidation is used to determine NO produced. Nitrite concentration in supernatants of macrophages was measured by a microplate assay method. 100 ul aliquots of supernatants were incubated with an equal volume of Griess reagent (1% sulfanilamide/O.1% naphthylethylene diamine dihydrochloride/2.5% H3PO4) at room temperature for 10 min. The absorbance at 550nm was determined in a microplate reader. Sodium nitrite was used as a standard.
Mice were injected i.p. with 1 ml sodium periodate (5mM). Three to 4 days later, macrophages were washed from the peritoneal cavity with PBS. After centrifugation at 170g for 10 min at […], the cell pellet was resuspended in RPMI 1640 containing 10% heat-inactivated new born calf serum. Adherent macrophage monolayers were obtained by plating the cells in 96-well plastic trays at 4x10^5 cells/well for 2 hr at 37°C in 5% CO2/air. Nonadherent cells were removed by suction and complete medium was added. […]

[5] = test system: Murine fibroblastic cells (A9); settings: for Protection Against TNF-α-Induced Cytotoxicity (cell viability): 1440 min
Procedure: Tyrphostins at different concentration were added 2 hr prior to TNF. After 24 hrs cells viability was determined by vital staining using neutral red.
Recombinant human TNFα is added to a mouse fibroblastic cell line (A9), cultured in the presence of cyclohexamine and cell viability is monitored after 20 hours. […] The percentage of live cells was measured from 2 hours prior to administration until 4 hours after administration for a control and for TNF at concentrations of 0.2 ng/ml, 0.05 ng/ml, and 1.0 ng/ml.

[6] = test system: PDGFR; settings: even at concentrations above 100 uM; cited from earlier work
[7] = test system: TNF-α; assay: LPS induced increase in serum TNF-α levels in mice; assay type: in vivo
Excerpt: TNF-α was implicated to mediate many of the toxic effect of LPS. For example, the effect of SSI 3 on serum TNF-α levels in mice which had been treated with LPS was investigated. LPS induced a rapid increase in serum TNF-α levels. […] […] The bioassay gave somewhat higher levels compared to the ELISA. This finding may indicate that the serum from LPS-treated mice contained in addition to TNF-α, other cytotoxic factors.
The amount of TNF-α was quantitated by assessing the extent of killing of the TNF-α sensitive cell line (A9) essentially as described by Ruff and Gilford, G. E. J. Immunol. 125, 1671-1677, (1980). Briefly, mouse A9 fibroblasts were plated in 96-well flat-bottom micro-titer plates at 30,000 cells /0.1 ml to establish a dense monolayer. After incubation for 24 hr at 37 C in a humidified 5% CO2 atmosphere, cycloheximide was added to a final concentration of 50 ug/ml and 100 ul of serially diluted test samples were added to the wells. After incubation for additional 18 hr the supernatants were carefully aspirated, the monolayer were washed twice with PBS and 200 ul of neutral red solution (0.02%) was added. After incubation for 2 hr, cells were washed and the dye that had been absorbed by the live cells was extracted using 200 ul of 50% ethanol. The concentration of the dye was determined by an ELISA autoreader using a 550 nm filter. Murine TNF-α ELISA kit from ENDOGEN Inc., was used for quancitation of murine TNF-α.

[8] = test system: mice; assay: LPS-induced lethal toxicity in mice; settings: for mice alive after 7 days: 100 ug/mouse 2 hours before or after LPS
[9] = Solubility in aqueous solution; assay type: physicochemical
[10] = LPS 200 µg/mouse, AG 300 µg/mouse 2 hrs prior to LPS, 1hr, mean (two single values)
[11] = LPS 200 µg/mouse, AG 300 µg/mouse 2 hrs prior to LPS, 2hr, mean (two single values)
[12] = no LPS (-), AG 300 µg/mouse, 1hr

EGF receptor, sequence (P00533 25-1210): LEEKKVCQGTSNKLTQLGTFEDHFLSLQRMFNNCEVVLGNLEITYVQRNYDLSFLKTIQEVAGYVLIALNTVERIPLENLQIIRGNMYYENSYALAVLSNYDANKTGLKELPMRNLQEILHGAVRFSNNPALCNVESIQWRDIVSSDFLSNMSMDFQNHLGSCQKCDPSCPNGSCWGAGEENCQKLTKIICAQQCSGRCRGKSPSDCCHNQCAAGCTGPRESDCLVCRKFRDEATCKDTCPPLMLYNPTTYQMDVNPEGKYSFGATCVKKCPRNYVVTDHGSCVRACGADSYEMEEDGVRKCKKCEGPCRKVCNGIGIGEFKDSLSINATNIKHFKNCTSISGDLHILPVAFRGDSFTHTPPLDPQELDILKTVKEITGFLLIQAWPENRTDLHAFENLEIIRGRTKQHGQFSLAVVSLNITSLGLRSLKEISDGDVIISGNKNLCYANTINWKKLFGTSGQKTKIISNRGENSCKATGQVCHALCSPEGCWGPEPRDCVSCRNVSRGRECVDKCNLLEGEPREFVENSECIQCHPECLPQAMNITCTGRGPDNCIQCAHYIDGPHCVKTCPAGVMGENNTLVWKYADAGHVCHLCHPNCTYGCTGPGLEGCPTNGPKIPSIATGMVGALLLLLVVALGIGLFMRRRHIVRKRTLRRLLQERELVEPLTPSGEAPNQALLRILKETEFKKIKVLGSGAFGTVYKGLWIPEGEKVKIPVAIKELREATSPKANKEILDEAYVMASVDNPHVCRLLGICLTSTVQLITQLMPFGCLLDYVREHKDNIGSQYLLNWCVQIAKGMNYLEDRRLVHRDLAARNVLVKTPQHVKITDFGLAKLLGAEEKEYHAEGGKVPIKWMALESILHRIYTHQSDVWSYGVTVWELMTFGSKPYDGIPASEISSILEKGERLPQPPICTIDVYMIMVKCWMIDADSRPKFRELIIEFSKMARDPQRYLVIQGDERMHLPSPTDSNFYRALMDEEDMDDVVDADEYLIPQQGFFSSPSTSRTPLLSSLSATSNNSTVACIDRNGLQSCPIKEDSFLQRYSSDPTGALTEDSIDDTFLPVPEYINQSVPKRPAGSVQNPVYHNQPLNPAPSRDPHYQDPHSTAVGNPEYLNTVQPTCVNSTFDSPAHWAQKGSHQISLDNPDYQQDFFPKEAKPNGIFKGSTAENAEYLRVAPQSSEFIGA
Her-2/neu receptor, sequence (P04626 23-1255): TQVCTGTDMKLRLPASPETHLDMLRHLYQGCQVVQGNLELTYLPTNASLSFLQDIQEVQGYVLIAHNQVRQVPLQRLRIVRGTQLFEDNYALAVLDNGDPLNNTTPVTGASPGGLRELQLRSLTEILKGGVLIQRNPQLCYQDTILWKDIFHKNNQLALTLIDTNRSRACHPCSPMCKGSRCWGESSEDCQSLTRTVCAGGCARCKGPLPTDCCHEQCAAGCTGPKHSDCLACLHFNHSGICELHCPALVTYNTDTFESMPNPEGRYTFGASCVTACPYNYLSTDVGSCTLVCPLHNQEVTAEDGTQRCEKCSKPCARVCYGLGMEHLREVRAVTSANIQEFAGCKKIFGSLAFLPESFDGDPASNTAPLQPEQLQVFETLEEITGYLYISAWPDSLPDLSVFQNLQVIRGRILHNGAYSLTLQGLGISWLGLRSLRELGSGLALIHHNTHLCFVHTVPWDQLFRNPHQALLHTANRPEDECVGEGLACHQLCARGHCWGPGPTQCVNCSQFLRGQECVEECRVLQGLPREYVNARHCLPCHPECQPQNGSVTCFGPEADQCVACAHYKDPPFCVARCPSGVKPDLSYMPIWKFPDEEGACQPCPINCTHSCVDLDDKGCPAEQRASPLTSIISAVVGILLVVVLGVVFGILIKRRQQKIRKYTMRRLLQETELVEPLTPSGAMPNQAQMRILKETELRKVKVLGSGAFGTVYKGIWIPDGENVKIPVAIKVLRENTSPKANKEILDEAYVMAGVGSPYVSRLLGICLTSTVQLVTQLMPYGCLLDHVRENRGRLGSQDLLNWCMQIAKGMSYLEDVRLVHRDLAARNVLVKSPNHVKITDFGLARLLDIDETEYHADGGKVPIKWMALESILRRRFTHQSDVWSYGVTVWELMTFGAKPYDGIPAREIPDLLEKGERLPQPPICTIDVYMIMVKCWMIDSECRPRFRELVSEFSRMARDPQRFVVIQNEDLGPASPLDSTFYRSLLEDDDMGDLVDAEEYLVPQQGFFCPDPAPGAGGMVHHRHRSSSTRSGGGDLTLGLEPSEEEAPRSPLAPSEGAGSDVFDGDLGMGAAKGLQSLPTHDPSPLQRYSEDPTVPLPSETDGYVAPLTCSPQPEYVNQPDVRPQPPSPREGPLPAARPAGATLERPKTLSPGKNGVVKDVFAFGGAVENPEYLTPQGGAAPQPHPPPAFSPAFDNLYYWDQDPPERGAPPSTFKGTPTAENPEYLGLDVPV

For `N#CC(C#N)=Cc1cc(O)c(O)c([N+](=O)[O-])c1` [SSI 8], the “effect on Her-2/neu receptor” value [1] is listed as “no effect”, the TNF-α ([2]; LPS +) is listed as <5 pg/mL and the TNF-α ([2]; LPS -) is listed as <5 pg/mL. The “ability to inhibit LPS-induced production of TNF-α by activated murine peritoneal macrophages in vitro” value ([2]; among the tyrphostins tested) was “most potent”, the “effect on EGF receptor” value [3] was “no effect” and the “NO2- production in unstimulated and LPS-stimulated periodate-activated murine macrophages” value ([4]; LPS (10 mg/ml)) was “effectively inhibited”. For the same compound, the “NO2- Production by Macrophages” value ([4]; SSI 20 uM, LPS 10 ug, 1 DAY) was 42,7 µg, the “NO2- Production by Macrophages” value ([4]; SSI 20 uM, LPS 10 ug, 2 DAY) was 80,6 µg and the “NO2- Production by Macrophages” value ([4]; SSI 20 uM, LPS 10 ug, 3 DAY) was 83,4 µg. The “NO2- Production by Macrophages” value ([4]; SSI 20 uM, no LPS, 1 DAY) was 10,4 µg, the “NO2- Production by Macrophages” value ([4]; SSI 20 uM, no LPS, 2 DAY) was 13,5 µg and the “NO2- Production by Macrophages” value ([4]; SSI 20 uM, no LPS, 3 DAY) was 11,8 µg. For the same compound, the “NO2- Production by Macrophages” value ([4]; SSI 50uM, LPS 10 ug, 1 DAY) was 6,4 µg, the “NO2- Production by Macrophages” value ([4]; SSI 50uM, LPS 10 ug, 2 DAY) was 11,5 µg and the “NO2- Production by Macrophages” value ([4]; SSI 50uM, LPS 10 ug, 3 DAY) was 22,4 µg. For the same compound, the “NO2- Production by Macrophages” value ([4]; SSI 50 uM, no LPS, 1 DAY) was 5,8 µg, the “NO2- Production by Macrophages” value ([4]; SSI 50 uM, no LPS, 2 DAY) was 8,1 µg and the “NO2- Production by Macrophages” value ([4]; SSI 50 uM, no LPS, 3 DAY) was 5,9 µg. For the same compound, the “blocking TNF-α induced cytotoxicity in vitro” value [5] was “active”, the “Protection Against TNF-α-Induced Cytotoxicity (cell viability)” value ([5]; TNF-α 0 ng/ml) was 100 and the “Protection Against TNF-α-Induced Cytotoxicity (cell viability)” value ([5]; TNF-α 0.2 ng/ml, none 41±2.3) was 67±4.1. The “Protection Against TNF-α-Induced Cytotoxicity (cell viability)” value ([5]; TNF-α 0.5 ng/ml, none 20±1.7) was 46+2.8 and the “effect on PDGFR” value [6] was “no effect”.

With `N#CC(=Cc1cc(O)c(O)c([N+](=O)[O-])c1)C(=O)O` [SSI 9] the TNF-α ([2]; LPS +) was 17 pg/mL, the TNF-α ([2]; LPS -) was <5 pg/mL and the “Serum TNF-α” value [7, 10] was 17.7 (17.3, 18.2) ng/ml. For the same compound, the “Serum TNF-α” value [7, 11] was 11.1 (10.5, 11.7) ng/ml, the “Serum TNF-α” value [7, 12] was 16.0 ng/mL and the “NO2- Production by Macrophages” value ([4]; SSI 20 uM, LPS 10 ug, 1 DAY) was 71,3 µg. For the same compound, the “NO2- Production by Macrophages” value ([4]; SSI 20 uM, LPS 10 ug, 2 DAY) was 112,9 µg, the “NO2- Production by Macrophages” value ([4]; SSI 20 uM, LPS 10 ug, 3 DAY) was 136 µg and the “NO2- Production by Macrophages” value ([4]; SSI 20 uM, no LPS, 1 DAY) was 41,8 µg. For the same compound, the “NO2- Production by Macrophages” value ([4]; SSI 20 uM, no LPS, 2 DAY) was 57,2 µg, the “NO2- Production by Macrophages” value ([4]; SSI 20 uM, no LPS, 3 DAY) was 45,1 µg and the “NO2- Production by Macrophages” value ([4]; SSI 50 uM, no LPS, 1 DAY) was 36 µg. For the same compound, the “NO2- Production by Macrophages” value ([4]; SSI 50 uM, no LPS, 2 DAY) was 51 µg, the “NO2- Production by Macrophages” value ([4]; SSI 50 uM, no LPS, 3 DAY) was 33 µg and the “blocking TNF-α induced cytotoxicity in vitro” value [5] was “not”.

With `N#CC(=Cc1cc(O)c(O)c([N+](=O)[O-])c1)C(=O)NCCCc1ccccc1` [SSI 10] the “Serum TNF-α” value [7, 10] was 18.7 (23.2, 19.2) ng/ml, the “Serum TNF-α” value [7, 11] was 12.9 (13.6, 12.2) ng/ml and the “Serum TNF-α” value [7, 12] was 14.0 ng/mL. For the same compound, the “NO2- Production by Macrophages” value ([4]; SSI 20 uM, LPS 10 ug, 1 DAY) was 42,3 µg, the “NO2- Production by Macrophages” value ([4]; SSI 20 uM, LPS 10 ug, 2 DAY) was 100,9 µg and the “NO2- Production by Macrophages” value ([4]; SSI 20 uM, LPS 10 ug, 3 DAY) was 124,9 µg. For the same compound, the “NO2- Production by Macrophages” value ([4]; SSI 20 uM, no LPS, 1 DAY) was 23,4 µg, the “NO2- Production by Macrophages” value ([4]; SSI 20 uM, no LPS, 2 DAY) was 27,9 µg and the “NO2- Production by Macrophages” value ([4]; SSI 20 uM, no LPS, 3 DAY) was 44,6 µg. The “NO2- Production by Macrophages” value ([4]; SSI 50 uM, no LPS, 1 DAY) was 23,3 µg, the “NO2- Production by Macrophages” value ([4]; SSI 50 uM, no LPS, 2 DAY) was 12,3 µg and the “NO2- Production by Macrophages” value ([4]; SSI 50 uM, no LPS, 3 DAY) was 13,2 µg.

In the case of `N#CC(=Cc1ccc(O)c(O)c1)C(=O)NCc1ccccc1` [SSI 16], the “LPS induced toxicity in vivo” value ([8]; 400 ug/mouse over 7 days with 10 mice) is reported as “does not prevent”, the “LPS induced NO production” value ([4]; 50 um, added 2 hours prior to LPS, 24 hours) is reported as “markedly inhibit” and the NO production ([4]; 50 um, from an initial level of 70 uM (no LPS), 24 hours) is reported as ~30 µM. The NO production ([4]; 50 um, from an initial level of 40 (10 ug/ml of LPS), 24 hours) was “approximately 20 uM”, the “more active in inhibiting TNF-α cytotoxicity in vitro” value [5] was “two to three fold” and the “TNF toxicity (percentage of live cells)” value ([5]; SSI 3 50 uM, SSI 16 2 uM, SSI 17 2 and 10 uM, A9 cells with cyclohexamine, viability after 20 hours, TNF 0.2, 0.05 and 1.0 ng/ml) was “prevent TNF toxicity to different degrees”. For the same compound, the “Protection Against TNF-α-Induced Cytotoxicity (cell viability)” value ([5]; TNF-α 0 ng/ml) was 100, the “Protection Against TNF-α-Induced Cytotoxicity (cell viability)” value ([5]; TNF-α 0.2 ng/ml, none 41±2.3) was 41±4.3 and the “Protection Against TNF-α-Induced Cytotoxicity (cell viability)” value ([5]; TNF-α 0.5 ng/ml, none 20±1.7) was 23±2.0.

With `N#CC(=Cc1ccc([N+](=O)[O-])c(O)c1)C(=O)NCCCc1ccccc1` [SSI 19] the “preventing TNF toxicity” value ([5]; 2 and 10 uM) was “effective”, the “toxicity to the indicator A9 cells” value ([5]; 50 um, by itself) was “toxic” and the “Protection Against TNF-α-Induced Cytotoxicity (cell viability)” value ([5]; TNF-α 0 ng/ml) was 100. The “Protection Against TNF-α-Induced Cytotoxicity (cell viability)” value ([5]; TNF-α 0.2 ng/ml, none 41±2.3) was 42±3.7 and the “Protection Against TNF-α-Induced Cytotoxicity (cell viability)” value ([5]; TNF-α 0.5 ng/ml, none 20±1.7) was 18±2.6.

For `N#CC(=Cc1ccc([N+](=O)[O-])c(O)c1)C(=O)NCCCCc1ccccc1` [SSI 23], the “mice alive after 7 days” value ([8]; 2.2 mg LPS/mouse, LPS alone 1 alive) was 4 out of 5 mice, the “mice alive after 7 days” value ([8]; 2.5 mg LPS/mouse, LPS alone 0 alive after 1 day) was 2 out of 5 mice and the induced lethality ([8]; even when administered late after LPS) was “prevent”. The “preventing TNF toxicity in vitro” value ([5]; 50um, added at the same time, 1 hour prior to, or late (2hr) after the addition of TNF) was “effective”, the “behaviour after dilution of the stock (made in DMSO) in PBS” value [9] was “rapidly precipitates” and the “solubility in aqueous solution” value [9] was “very soluble”.
